From article PMC3498823 (Bioorganic & medicinal chemistry letters, 2011)
“Also recorded” adds a separate entry of the source. Each block holds one molecule with its values, some of them ahead of it.

Legend:
[1] = tested on: amphetamine induced hyperlocomotion in rats; experiment: reversal of amphetamine-induced hyperlocomotion; assay type: in vivo; details: 30 mg/kg i.p.
mGlu5 receptor [2] = target: mGlu5 receptor (Rattus norvegicus, UniProt P31424); experiment: triple-add functional calcium mobilization assay, mGlu5; assay type: cell-based; details: PAM, Ago-PAM, weak PAM or partial antagonist
mGlu5 receptor [3] = experiment: as above; assay type: cell-based; details: PAM, Ago-PAM, weak PAM or partial antagonist
mGlu5 receptor [4] = details: HTS lead; cited from earlier work
[5] = tested on: in vivo preclinical antipsychotic model; details: orally active; cited from earlier work

Chain of mGlu5 receptor (P31424 21-1203): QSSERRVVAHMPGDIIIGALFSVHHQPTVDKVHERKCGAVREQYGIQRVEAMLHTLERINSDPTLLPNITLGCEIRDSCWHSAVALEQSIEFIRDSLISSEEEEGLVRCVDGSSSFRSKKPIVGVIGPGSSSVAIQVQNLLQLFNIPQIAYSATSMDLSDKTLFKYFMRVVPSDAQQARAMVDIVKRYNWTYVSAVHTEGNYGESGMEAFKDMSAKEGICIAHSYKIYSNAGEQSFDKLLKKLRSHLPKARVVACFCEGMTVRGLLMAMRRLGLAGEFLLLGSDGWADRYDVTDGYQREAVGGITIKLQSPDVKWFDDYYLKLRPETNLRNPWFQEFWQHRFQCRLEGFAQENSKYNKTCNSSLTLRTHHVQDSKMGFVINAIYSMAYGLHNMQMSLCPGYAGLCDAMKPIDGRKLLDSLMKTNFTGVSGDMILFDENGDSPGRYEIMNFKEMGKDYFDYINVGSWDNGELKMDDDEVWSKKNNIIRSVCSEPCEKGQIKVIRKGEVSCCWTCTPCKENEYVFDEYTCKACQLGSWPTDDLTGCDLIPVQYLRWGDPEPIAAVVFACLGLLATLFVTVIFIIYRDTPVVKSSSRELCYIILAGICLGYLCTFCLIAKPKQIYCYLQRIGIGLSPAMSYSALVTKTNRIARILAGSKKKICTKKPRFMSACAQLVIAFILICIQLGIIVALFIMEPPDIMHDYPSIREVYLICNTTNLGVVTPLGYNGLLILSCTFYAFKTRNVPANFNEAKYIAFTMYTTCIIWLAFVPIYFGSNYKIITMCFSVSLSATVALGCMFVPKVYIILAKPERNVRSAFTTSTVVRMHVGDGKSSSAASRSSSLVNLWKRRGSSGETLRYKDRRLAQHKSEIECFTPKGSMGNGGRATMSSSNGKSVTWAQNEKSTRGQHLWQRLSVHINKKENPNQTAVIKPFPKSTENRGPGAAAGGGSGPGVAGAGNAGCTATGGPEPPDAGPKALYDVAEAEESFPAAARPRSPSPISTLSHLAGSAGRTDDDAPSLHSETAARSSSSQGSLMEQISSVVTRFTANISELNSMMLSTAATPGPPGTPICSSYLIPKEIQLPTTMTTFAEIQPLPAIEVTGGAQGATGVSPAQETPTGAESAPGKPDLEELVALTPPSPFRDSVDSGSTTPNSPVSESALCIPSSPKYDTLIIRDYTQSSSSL
Chain of mGlu5 receptor (Rattus norvegicus, UniProt P31424) (P31424 21-1203): as above

Compound: O=C1NCCc2cc(C#Cc3ccccc3)ccc21 [9a]
reversal of amphetamine-induced hyperlocomotion [1]: significant reversal

Compound: CCCN1CCc2cc(C#Cc3ccccc3)ccc2C1=O [9c]
reversal of amphetamine-induced hyperlocomotion [1]: significant reversal; also recorded: Reversal of amphetamine-induced hyperlocomotion

Compound: O=C1c2ccc(C#Cc3ccccc3)cc2CCN1CC1CC1 [9f]
reversal of amphetamine-induced hyperlocomotion [1]: significant reversal

Compound: CN1CCc2nc(C#Cc3cccc(F)c3)ccc2C1=O [10b]
Category (mode of pharmacology) (mGlu5 receptor [2]): partial antagonists; also recorded: Partial Antag

Category (mode of pharmacology) (mGlu5 receptor [3]): Weak PAM
Compound: CC(C)CN1CCc2nc(C#Cc3cccc(F)c3)ccc2C1=O [10c]

Category (mode of pharmacology) (mGlu5 receptor [3]): Weak PAM
Compound: CCCCN1CCc2nc(C#Cc3cccc(F)c3)ccc2C1=O [10d]

Compound: O=C1c2ccc(C#Cc3cccc(F)c3)nc2CCN1CC1CC1 [10e]
Category (mode of pharmacology) (mGlu5 receptor [2]): partial antagonists; also recorded: Partial Antag

Compound: O=C(c1ccc(C#Cc2ccccc2)cc1)N1CCC(O)CC1 [VU0092273]
ligand efficiency (LE) (mGlu5 receptor [4]): ~0.5

Compound: O=C(NC1CCC1)c1ccc(C#Cc2cccc(F)c2)nc1 [VU0360172]
efficacy in an in vivo preclinical antipsychotic model [5]: efficacious
